Several values for one entry are separate records, joined by “and”; a condition that tells them apart may be missing. Identical values can stand only once.
Test system: WM3248 melanoma cells, 486 antibodies
Experiment: Reverse phase protein arrays (RPPA)
Type: cell-based, Human
Details: 20 uM, single replicates
Description: Pellets were snap frozen in liquid nitrogen and shipped to MD Anderson Cancer Center core RPPA facility for RPPA analysis (Table S5). Three biological replicates for each sample were generated.
Nomenclatures on the RPPA heatmaps: name_of_antibody.species_of_antibody.status_of_antibody. V - antibody validated; C - validation of antibody in progress; Q - antibody nonspecific; E – under evaluation; antibodies raised in M - mouse, G - goat, R - rabbit, or T - rat.

In the case of `CN(C)c1cccc(Nc2cc(-c3ccccc3)nc(C3CCNCC3)n2)c1` [ARN22089, N1,N1-dimethyl-N3-(6-phenyl-2-(piperidin-4-yl)pyrimidin-4-yl)benzene-1,3-diamine], the “RPPA level HSP60.R.V” value was 1.015 and 0.888 and 1.096, the “RPPA level HSP70.R.C” value was 1.026 and 1.351 and 1.104 and the “RPPA level Hexokinase.I.R.C” value was 0.978 and 0.986. For the same molecule, the “RPPA level Hexokinase.II.R.V” value was 1.256 and 0.762 and 0.871, the “RPPA level Hif.1αR.C” value was 0.972 and 1.096 and 0.645 and the “RPPA level Histone.H3.R.V” value was 1.540 and 13.252 and 0.726. For the same molecule, the “RPPA level Histone.H3_pS10.R.V” value was 1.398 and 3.688 and 0.992, the “RPPA level IDO.R.C” value was 0.839 and 1.159 and the “RPPA level IGF1R_pY1135_Y1136.R.V” value was 0.898 and 1.026 and 1.052. For the same molecule, the “RPPA level IGFBP2.R.V” value was 0.627 and 0.801 and 1.270, the “RPPA level IGFBP3.M.V” value was 0.715 and 1.003 and 1.004 and the “RPPA level IGFRb.R.C” value was 1.190. The “RPPA level IL.6.R.C” value was 0.855 and 1.111 and 1.060, the “RPPA level IMP3.R.C” value was 1.052 and 1.022 and 0.974 and the “RPPA level INPP4b.R.C” value was 1.077 and 0.833 and 0.806. The “RPPA level IR.b.R.C” value was 0.907 and 1.208 and 1.333, the “RPPA level IRF.1.R.V” value was 0.730 and 0.964 and 1.168 and the “RPPA level IRF.3.R.V” value was 0.995 and 0.906 and 0.945. The “RPPA level IRS1.R.V” value was 1.014 and 1.159 and 1.141, the “RPPA level IRS2.R.C” value was 1.278 and 1.343 and 1.011 and the “RPPA level JAB1.M.C” value was 0.955 and 0.936 and 1.024. For the same molecule, the “RPPA level JNK2.R.V” value was 0.819 and 0.805 and 1.152, the “RPPA level JNK_pT183_Y185.R.C” value was 0.945 and 1.049 and 1.120 and the “RPPA level Jagged1.R.V” value was 0.981 and 1.189. The “RPPA level Jak2.R.V” value was 1.014 and 1.017, the “RPPA level KAP1.R.V” value was 1.154 and 0.878 and the “RPPA level KEAP1.R.V” value was 1.208 and 0.814 and 0.859. The “RPPA level LAD1.R.V” value was 0.839 and 1.022 and 1.196, the “RPPA level LC3A.B.R.C” value was 1.392 and 1.015 and the “RPPA level LCN2.R.V” value was 2.637 and 0.737 and 1.009. For the same molecule, the “RPPA level LDHA.R.C” value was 0.867 and 0.798 and 1.272, the “RPPA level LRP6_pS1490.R.V” value was 0.973 and the “RPPA level Lasu1.R.V” value was 1.275 and 1.065 and 0.935. For the same molecule, the “RPPA level Lck.R.V” value was 1.245 and 1.124 and 1.192, the “RPPA level Lyn.R.V” value was 1.188 and 0.948 and the “RPPA level MACC1.R.V” value was 1.006 and 1.026 and 0.991. The “RPPA level MAPK_pT202_Y204.R.C” value was 0.788 and 0.541 and 0.701, the “RPPA level MCT4.R.V” value was 0.646 and 0.854 and 1.188 and the “RPPA level MDM2_pS166.R.V” value was 1.371 and 1.241 and 1.078. The “RPPA level MEK1.R.V” value was 0.858 and 3.823 and 2.342, the “RPPA level MEK1_pS217_S221.R.V” value was 0.758 and 1.168 and 1.336 and the “RPPA level MEK2.R.V” value was 1.000 and 1.139. For the same molecule, the “RPPA level MERIT40.R.C” value was 0.830 and 0.763, the “RPPA level MERIT40_pS29.R.V” value was 0.843 and 1.161 and the “RPPA level METTL3.R.V” value was 1.391 and 1.001. The “RPPA level MIF.R.C” value was 1.003 and 0.889 and 0.956, the “RPPA level MIG6.R.V” value was 0.962 and 1.022 and 0.982 and the “RPPA level MITF.R.V” value was 1.062 and 1.054 and 0.977. The “RPPA level MLH1.M.V” value was 0.822 and 0.867 and 0.972, the “RPPA level MLKL.R.V” value was 0.744 and 0.811 and 1.046 and the “RPPA level MMP2.R.V” value was 1.019 and 0.966 and 0.959. For the same molecule, the “RPPA level MMP14.R.V” value was 1.320 and 1.294 and 1.349, the “RPPA level MR1.M.C” value was 0.957 and 1.152 and 0.970 and the “RPPA level MRAP.R.C” value was 0.958 and 1.263 and 1.157. The “RPPA level MSH2.R.C” value was 0.876 and 0.877 and 0.987, the “RPPA level MSH6.R.C” value was 1.224 and 1.204 and 1.063 and the “RPPA level MSI2.R.C” value was 1.222 and 1.004. The “RPPA level MTCO1.M.V” value was 1.417 and 0.726, the “RPPA level MTSS1.M.C” value was 0.974 and 1.002 and 0.966 and the “RPPA level Mcl.1.R.V” value was 0.716 and 0.788 and 1.009. The “RPPA level MelanA.R.C” value was 1.005, the “RPPA level Melanoma.gp100.R.C” value was 0.910 and 0.978 and 1.134 and the “RPPA level Merlin.R.C” value was 1.134 and 1.227 and 1.109. For the same molecule, the “RPPA level Midkine.R.V” value was 0.990 and 0.926 and 0.994, the “RPPA level Mitofusin.1.R.V” value was 0.874 and 0.829 and 1.152 and the “RPPA level Mitofusin.2.R.V” value was 0.751 and 0.836. For the same molecule, the “RPPA level Mnk1.R.V” value was 0.933 and 0.905 and 1.031, the “RPPA level mTOR.R.V” value was 0.956 and 0.920 and the “RPPA level mTOR_pS2448.R.C” value was 0.845 and 0.920 and 0.976. For the same molecule, the “RPPA p21.R.C” value was 1.050 and 0.570 and 0.863, the “RPPA p27.Kip1.R.C” value was 1.342 and 1.132 and 0.997 and the “RPPA p27_pT157.R.C” value was 1.309 and 1.207 and 1.127. For the same molecule, the “RPPA p27_pT198.R.V” value was 1.003 and 1.297 and 1.169, the “RPPA p38.MAPK.R.V” value was 0.937 and 0.864 and 1.143 and the “RPPA p38.MAPK._pT180_Y182.R.V” value was 0.828 and 1.168 and 1.281. The “RPPA p38.a.M.V” value was 0.862 and 0.943, the “RPPA p44.42.MAPK.R.V” value was 1.247 and 0.862 and 0.981 and the “RPPA p53.R.C” value was 0.928 and 1.483 and 1.058. For the same molecule, the “RPPA p70.S6K1.R.V” value was 1.060 and 0.948, the “RPPA p70.S6K_pT389.R.V” value was 0.797 and 1.020 and 1.171 and the “RPPA p90RSK_pT573.R.C” value was 1.285 and 0.748 and 1.009.
